Results on two compounds are retold here after patent publication US20250002865A1, “METHOD FOR PRODUCING ORGANISM, AND METHOD FOR PROMOTING DIFFERENTIATION OF HUMAN ADIPOSE-DERIVED STEM CELLS INTO VASCULAR ENDOTHELIAL CELLS” (TOPPAN Holdings Inc., priority 2021, published 2025).

The subject of experiment [1] is human adipose stem cell (ADSC). As to conditions: 5 μM in EGM-2 for 7 days, then 24 hours on Matrigel; compared with EGM-2 without ALK5 inhibitor.
Method: The culture medium was changed every 2 days, culture was carried out for 7 days. Thereafter, the ADSC was separated from the dish using trypsin/EDTA and suspended in 1 mL of DMEM, and the number of cells was counted. Further, the recovered ADSC was seeded on a 24-well plate previously coated with Matrigel at concentrations of 1.0×10^5 cells/dish, 1.5×10^5 cells/dish, and 2.0×10^5 cells/dish, and incubated at 37° C. for 24 hours. Thereafter, the morphology of the tissue construct was evaluated with a phase contrast microscope.
For experiment [2], the system named is human adipose stem cell (ADSC). The note with it: 5 μM in EGM-2, 7 days, compared with EGM-2 without ALK5 inhibitor.
Method: The culture medium was changed every 2 days, and culture was carried out for 7 days after seeding to obtain a tissue construct.
Fluorescence imaging of the tissue construct was carried out according to the following procedure. A transwell containing the obtained tissue construct was transferred to a 24-well plate. After washing with 2 mL of PBS, the tissue was fixed overnight under the condition of 4° C. using 2 mL of 4% PFA. Washing was carried out three times using 2 mL of PBS. Cells were subjected to permeabilization treatment for 7 minutes under room temperature conditions by using 0.05% Triton/PBS (500 μL in the transwell and 500 μL outside the transwell), and washing was carried out three times using 2 mL of PBS.
The tissue was subjected to blocking treatment for 1 hour under room temperature conditions by using a 1% BSA/PBS solution (500 μL in the transwell and 500 μL outside the transwell). The BSA solution was aspirated, and 100 μL of a primary antibody solution (an anti-CD31 antibody diluted 100-fold in a 1% BSA/PBS solution) was added (50 μL in the transwell and 50 μL outside the transwell). A wet tissue paper was placed under the plate, and the plate was covered with an aluminum foil and incubated overnight under the condition of 4° C. […]
Experiment [3] relates to human adipose stem cell (ADSC). The note with it: 5 μM in EGM-2, 7 days.
Method: The culture medium was changed every 2 days, and culture was carried out for 7 days to obtain a tissue construct. Thereafter, the ADSC was gently detached while leaving cell surface proteins, by incubation for 5 minutes using 0.25% Trypsin, recovered from the dish, and suspended in 1 mL of DMEM, and the number of cells was counted.
The ratio of vascular endothelial cells in the tissue construct was analyzed by the flow cytometry analysis using BD Facsmelody (registered trademark) cell sorter (Becton, Dickinson and Company). The tissue construct recovered as described above was centrifuged (100 g, 5 minutes, 4° C.). […] Thereafter, cells were centrifuged (100 g, 5 minutes, 4° C.) to wash the cells, and the pelleted cells were suspended in a buffer, and 10,000 events were recorded. Further, an isotype control for the conjugated antibody was measured simultaneously. […]
The ratio of vascular endothelial cells in the sample was analyzed by the flow cytometry analysis using BD Facsmelody (registered trademark) cell sorter (Becton, Dickinson and Company). […] Thereafter, cells were centrifuged (100 g, 5 minutes, 4° C.) to wash the cells, and the pelleted cells were suspended in a buffer, and 10,000 events were recorded. Further, an isotype control for the conjugated antibody was measured simultaneously. […]
Experiment [4] concerns cell balls of mature adipocytes and cells recovered from ADSC tissue construct.
Method: Isolated ADSC was suspended in an EGM-2 medium, seeded in a 10-cm dish, and incubated at 37° C. The culture medium was changed every 2 days, and culture was carried out for 7 days to obtain a tissue construct. From this tissue construct, cells including ADSC, ADSC-derived vascular endothelial cells, and vascular endothelial progenitor cells were recovered.
The total number of cells of the tissue construct (cell ball) used was 4.0×10^4 cells/ball, and the mature adipocytes and the above-described recovered cells were used a ratio of 3:2.5 for the production.
The cell ball seeded in the low-adhesion 96-well plate was incubated in a 37° C. incubator for 15 minutes to carry out gelation, and 300 μL of EGM-2 or KBM was added thereto. […] In addition, EGM-2 or KBM, containing only insulin of a final concentration of 10 μg/mL and an ALK-5 inhibitor of 5 μM, was used as a control.
(§1) After 24 hours of culture, cells were transferred to a low-adhesion 24-well plate (IWAKI #4820-800LP), and 2 mL of the above EGM-2 or KBM was added thereto. The culture medium was changed every 2 to 3 days until the 7th day of culture.
The fluorescence imaging of the tissue construct was carried out as in Production Example 4, except that an anti-von Willebrand factor (vWF) antibody diluted 100-fold in a 1% BSA/PBS solution was used as a primary antibody solution and an Alexa Fluor 647-labeled anti-rabbit IgG antibody solution diluted 200-fold in 1% BSA/PBS solution was used as a secondary antibody solution. The vWF was used as a marker for vascular endothelial cells. In addition, for observation, the cell ball was placed directly on a complete plate of a Confocal Quantitative Image Cytometer CQ1 (Yokogawa Electric Corporation), and the stained tissue construct was observed using the Confocal Quantitative Image Cytometer CQ1 with laser excitation light at 640 nm.
Experiment [5] has the same test system. The note with it: VEGF 50 ng/mL in EGM-2 with 10 μg/mL insulin and 5 μM ALK-5 inhibitor, 7 days.
Method: Regarding the produced tissue construct, 5 μL (equivalent to one cell ball) of the mixture (equivalent to 40 cell balls) was seeded on each well of a low-adhesion 96-well plate (IWAKI #4860-800LP).
The cell ball seeded in the low-adhesion 96-well plate was incubated in a 37° C. incubator for 15 minutes to carry out gelation, and 300 μL of EGM-2 containing insulin of a final concentration of 10 μg/mL, an AKL-5 inhibitor of 5 μM, and VEGF of 50 ng/mL was added thereto.
as §1
The fluorescence imaging of the tissue construct was carried out as in Production Example 4, except that various primary antibody solutions and the corresponding secondary antibody solutions were used. […]
For observation, the cell ball was placed directly on a complete plate of a Confocal Quantitative Image Cytometer CQ1 (Yokogawa Electric Corporation), and the stained tissue construct was observed using the Confocal Quantitative Image Cytometer CQ1. […]

Where “and” joins values, the source holds several entries; their conditions need not be identical. Equal entries are not always repeated.

On to `Cc1cccc(-c2n[nH]cc2-c2ccc3ncccc3n2)n1` [ALK5 inhibitor, 2-[3-(6-methyl-2-pyridinyl)-1H-pyrazol-4-yl]-1,5-naphthyridine], for which the “lumen formation / vascular network on Matrigel” value in experiment [1] is given as “lumen formation is further progressed”. The “vascular network formation by CD31 staining” value in experiment [2] is “a vascular network in which the number of branches is larger is formed”. For the same compound, in experiment [3], the “ratio of vascular endothelial cells (CD31+) based on number of total cells recovered” value was 29.29% and 32.4%.
In the case of VEGF, the “vascular network, number of branches of blood vessels, vs control without VEGF” value in experiment [4] (VEGF 0.5, 20, 50 or 100 ng/mL in EGM-2 or KBM with 10 μg/mL insulin and 5 μM ALK-5 inhibitor, 7 days) is given as “the number of branches of blood vessels is large as compared with the control cell ball”. Moreover, in experiment [4] (VEGF-containing medium vs leptin 1 μg/mL, both with insulin and 5 μM ALK-5 inhibitor, 7 days), the “vascular network, number of branches of blood vessels, vs culture medium containing leptin” value is on record as “the number of branches of blood vessels is large as compared with the cell ball cultured in a culture medium containing leptin”. Also, the “vascular network, amount of blood vessels among VEGF concentrations” value in experiment [4] (culture medium containing more than 20 ng/mL of VEGF) is “a vascular network having still more blood vessels was formed”. In experiment [5], the “proportion of vWF-positive vs CD34-positive cells among total CD31-positive cells” value is “the proportion of vWF-positive cells with respect to the total CD31-positive cells was higher than the proportion of CD34-positive cells” and the “vascular network formation in cell ball” value was “a vascular network was also formed”.
